From ChEMBL document CHEMBL1158000, “Geniculol, a new biologically active diterpene from the endophytic fungus geniculosporium sp.1” (1999) come the findings set out here.

Assay [1] has as its system [Chlorella] fusca. Nature of the assay: Antialgal activity against Chlorella fusca at 50 ug by agar diffusion test. The class given is functional. The settings on record: Scenedesmus fuscus; read-out: IZ.
For assay [2], the system named is [Chlorella] fusca. Nature of the assay: Reduction of photosynthetic activity in green alga Chlorella fusca assessed as production of oxygen per hour at 0.2 mg/mL. Format: functional, Scenedesmus fuscus. Also noted: scale not given: the % may be the effect or the level left.

Molecules are shown by their SMILES.

For the molecule `C[C@H]1C/C=C/[C@H]2[C@@H]3O[C@]3(C)[C@@H](C)[C@H]3[C@H](Cc4ccccc4)NC(=O)[C@]32OC(=O)/C=C/[C@@H](O)CCC1` [CYTOCHALASIN F], the zone of inhibition at 50 µg/disc in assay [Chlorella] fusca [1] is 1 mm. In addition, the Activity in assay [Chlorella] fusca [2] came out at 94.1%. With `C[C@]12CCC(=O)O[C@H]1C1=C[C@H]3OC(=O)[C@@]4(C)CCC[C@@](C)([C@@H]34)[C@]1(O)[C@H]2O` [GENICULOL], the zone of inhibition at 50 µg/disc in assay [Chlorella] fusca [1] was 2 mm.
